Common to all, as to assay: NCI-60 cell line screen, 48 h
The test system of test [1] is HCT-15 colon.
For test [2], the system named is NCI-H522 lung.
For test [3], the system named is HL-60(TB) leukemia.
The subject of test [4] is SK-MEL-5 melanoma.
The test system of test [5] is SF-268 CNS.
The subject of test [6] is SK-MEL-28 melanoma.
The test system of test [7] is UO-31 renal.
The subject of test [8] is COLO 205 colon.
For test [9], the system named is T-47D breast.
For test [10], the system named is IGROV1 ovarian.

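Compound exposure: 48 hours, 5 concentrations, 96-well plates. GI50 is the concentration that inhibits growth by half. TGI: total growth inhibition.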 Bounds are passed on as bounds.

`CCN(CC)c1ccc2c(c1)Oc1nc(N)c(C#N)c(N)c1C2Sc1ccc(OC)cc1` (stereo not given): the GI50 in test [1] was 1.53 µM; in test [2] it was 1.79 µM; in test [3] it was 2.28 µM; in test [4], 1.54 µM; in test [5], 1.85 µM; in [6], 1.85 µM. In addition, the GI50 was 1.52 µM in test [7], 1.88 µM in test [8], 1.91 µM in test [9] and 1.9 µM in test [10]. The TGI was found to be 3.11 µM in test [1]; 3.38 µM in [2]; 6.44 µM in [3]; 2.9 µM in test [4]; 3.58 µM in [5]; 3.37 µM in test [6]. The TGI in [7] was determined as 2.85 µM; in test [8], 3.65 µM; in test [9] it was 4.89 µM; in test [10], 3.9 µM.
In the case of `O=C(O)c1ccc(S(=O)(=O)Nc2ccc3oc4c(c3c2)C(=O)CCC4)cc1`, the GI50 in test [1], in [2], in test [3], in test [4], in test [5] and in test [6] was above 100 µM each time. In addition, the GI50 in test [7], in [8], in test [9] and in test [10] was above 100 µM in each case. Further, the TGI in test [1], in test [2], in test [3], in test [4], in [5] and in test [6] was above 100 µM in each case. Also, the TGI in test [7], in test [8], in test [9] and in test [10] was above 100 µM each time.
On to `O=c1c(O)cccc2cc(O)c(O)c(O)c12`, for which the GI50 was 39.1 µM in test [1]; 3.63 µM in test [2]; 21.9 µM in test [3]; above 100 µM in test [4]; 5.34 µM in [5]; 32.3 µM in test [6]. The GI50 in test [7] was 2.54 µM; in test [8], above 100 µM; in test [9], above 100 µM; in test [10], 5.06 µM. For the same compound, the TGI in test [1] was above 100 µM; in [2], 14.5 µM; in test [3], 77.9 µM; in [4], above 100 µM; in test [5], above 100 µM; in test [6], above 100 µM. The TGI in test [7] was above 100 µM; in test [8], above 100 µM; in test [9], above 100 µM; in test [10], 27 µM.
As for `CC(C)CC(=O)Nc1n[nH]c2c1CN(C(=O)C1CCN(C)CC1)C2(C)C`, the GI50 in [1] is above 10 µM; in [2] it was 0.467 µM; in test [3], 0.513 µM; in test [4] it was 0.743 µM; in test [5], 1.9 µM; in [6], 0.626 µM. Moreover, the GI50 was above 10 µM in test [7], 0.331 µM in test [8], 1.59 µM in test [9] and 0.579 µM in test [10]. The TGI in test [1] was above 10 µM; in test [2], 3.99 µM; in [3], 4.97 µM; in test [4] it was 5.7 µM; in test [5] it was above 10 µM; in test [6], above 10 µM. Further, the TGI is above 10 µM in [7], 2.19 µM in test [8], 9.54 µM in test [9] and above 10 µM in [10].
Take `CS(=O)(=O)CCNCc1ccc(-c2ccc3ncnc(Nc4ccc(OCc5cccc(F)c5)c(C(F)(F)F)c4)c3c2)o1`: the GI50 is 4.02 µM in test [1]; 3.58 µM in [2]; 5.65 µM in [3]; 2.84 µM in test [4]; 3.74 µM in test [5]; 3.71 µM in test [6]. The GI50 was 3.36 µM in test [7], 4.37 µM in [8], 3.4 µM in test [9] and 4.56 µM in test [10]. Moreover, the TGI in test [1] stood at 9.12 µM; in test [2], 7.25 µM; in test [3] it was 13.4 µM; in [4], 5.9 µM; in test [5] it was 7.78 µM; in test [6] it was 7.2 µM. Moreover, the TGI in test [7] amounted to 8.42 µM; in test [8], 7.99 µM; in [9], 7.74 µM; in [10], 13.5 µM.
Take `O=C(/C=N/O)Nc1cc(Cl)c(Cl)cc1Cl`: the TGI in [1] is above 100 µM; in [2], 67.8 µM; in test [3], 53.8 µM; in test [4], 33 µM; in test [5], above 100 µM; in [6] it was above 100 µM. The TGI in test [7] was above 100 µM; in test [8], 87.4 µM; in test [9], 95.5 µM; in [10] it was above 100 µM.
Consider `CCN1C2=NCCN2S(=O)(=O)c2ccccc21`, for which the TGI in [1], in [2], in test [3], in [4], in [5] and in [6] was above 100 µM in each case. Further, the TGI in test [7], in test [8], in test [9] and in [10] was above 100 µM in each case.
Consider `O=C(O)c1cc2ccccc2c(N=Nc2cc(C(F)(F)F)ccc2Cl)c1O`, for which the TGI in [1], in test [2], in [3], in test [4], in test [5] and in test [6] was above 100 µM each time. The TGI in test [7], in test [8], in test [9] and in [10] was above 100 µM throughout.
With `Cc1nccc2c3ccc(OCc4cn(-c5ccc(Cl)cc5)nn4)cc3n(CCCc3ccccc3)c12`, the GI50 is 2.57 µM in test [1]; above 33.3 µM in test [2]; 1.88 µM in test [3]; 25.8 µM in test [4]; 4.66 µM in test [5]; 1.3 µM in [6]. For the same compound, the GI50 in test [7] was 0.545 µM; in [8], 4.22 µM; in test [9] it was 20.6 µM; in test [10], 6.93 µM. The TGI in test [1] was above 33.3 µM; in test [2] it was above 33.3 µM; in test [3] it was 8.37 µM; in [4], above 33.3 µM; in test [5] it was 17.5 µM; in test [6], 5.71 µM. In addition, the TGI in test [7] is 1.37 µM; in test [8] it was above 33.3 µM; in test [9] it was above 33.3 µM; in [10], above 33.3 µM.
